# Where a name gives a salt, the structure may show the parent alone.
# What was measured:
# PD1-Fc = assay: Labeling of PD1-Fc via CuAAC and Cu-free click chemistry, detection by Western blot; conditions: 1 h; for Western blot labeling signal: CuAAC with biotin-alkyne 100 μM or BARAC-biotin 100 μM
# Procedure: FIG. 13. Comparison of the efficiency of the CuAAC and BARAC-mediated copper-free click chemistry in labeling recombinant proteins and crude cell lysates. Western blot analysis of PD1-Fc isolated from HEK cells treated with Ac4ManNAz (top panel). Total protein loading was confirmed by Coomassie staining (bottom panel). Reaction conditions for CuAAC: biotin-alkyne (100 μM) in the presence of sodium ascorbate (2.5 mM), CuSO4 (250 μM) premixed with various tristriazolylamino ligands (500 μM); copper-free click reaction: BARAC-biotin (100 μM). Reactions were allowed to proceed for 1 h at room temperature, and analyzed by Western blot using an HRP-conjugated anti-biotin antibody. Structural formulae of tris(triazolylmethyl)amine-based ligands and BARAC-biotin. BTTAA=2-[4-({bis[(1-tert-butyl-1H-1,2,3-triazol-4-yl)methyl]amino}methyl)-1H-1,2,3-triazol-1-yl]acetic acid, BTTES=2-[4-({bis[(1-tert-butyl-1H-1,2,3-triazol-4-yl)methyl]amino}methyl)-1H-1,2,3-triazol-1-yl]ethyl hydrogen sulfate, TBTA=tris[(1-benzyl-1H-1,2,3-triazol-4-yl)methyl]amine, THPTA=tris[(1-hydroxypropyl-1H-1,2,3-triazol-4-yl)methyl]amine, BARAC=biarylazacyclooctynone.
# To evaluate the activity of the new ligand-Cu(I) complex and compare the click reactions in the context of biomolecular labeling experiments, the first system used was a recombinant glycoprotein—Programmed Death 1-Immunoglobulin G Fc fusion (PD1-Fc). When expressed in mammalian cells, the Fc region of the recombinant protein is glycosylated and terminated with sialic acids. HEK-293 cells stably expressing PD1-Fc fusion protein were cultured in medium containing 50 μM sialic acid metabolic precursor—peracetylated N-azidoacetylmannosamine (Ac4ManNAz) for 4 days. The target protein was then isolated using protein G (a genetically engineered protein that contains Fc binding domains of protein G) agarose. To probe for the presence of the sialic acid-associated azide, the protein was reacted with biotin-alkyne via the CuAAC or BARAC-biotin via the copper-free click chemistry. For the CuAAC, 100 μM of biotin-alkyne was used as the coupling partner and the ratio of biotin-alkyne, ligand, CuSO4 and sodium ascorbate was held at 1:5:2.5:25, a labeling condition optimized in the lab. The copper-free click chemistry was performed with 100 μM of BARAC-biotin. The reactions were allowed to proceed for one hour and the labeled protein was analyzed by SDS-PAGE and Western blot. As quantified by ImageJ, reactions mediated by BTTES-Cu(I) and BTTAA-Cu(I) provided 2.6- and 2.1-fold stronger signal than the signal afforded by THPTA-Cu(I) for the fusion protein isolated from Ac4ManNAz-treated culture. […]
# Jurkat cells = assay: Live cell labeling of Ac4ManNAl-treated cells, BTTPS-Cu(I) vs BTTP-Cu(I), Alexa Fluor 488-streptavidin and 7-AAD flow cytometry; type: cell-based, human; conditions: for mean fluorescence intensity: 15 min
# Procedure: FIG. 12A-12D. Comparison of the efficiency of the BTTPS-Cu(I) and BTTP-Cu(I)-mediated azide-alkyne cycloaddition in labeling sialylated glycoconjugates in live cells. Jurkat cells were cultured in the presence or absence of Ac4ManNAl for 3 days. Cells were then reacted with biotin azide (50 μM) in the presence of sodium ascorbate (2.5 mM), and CuSO4 premixed with ligands BTTPS or BTTP ([ligand]:[CuSO4]=6:1). Reactions were quenched with BCS, stained with Alexa Fluor 488-streptavidin, 7-AAD, and analyzed by flow cytometry. (A) Mean fluorescence intensity (MFI) of cells treated with the BTTPS-Cu(I) or BTTP-Cu(I) catalyst ([CuSO4]=75 μM) in the course of 5-15 min reactions. (B) Percentage of viable cells without cell-membrane damage post the click reactions with the BTTPS-Cu(I) or BTTP-Cu(I) catalyst ([CuSO4]=75 μM) in the course of 5-15 min reactions. (C) MFI of cells treated with the BTTPS-Cu(I) catalyst ([CuSO4]=20-75 μM) in a one-minute reaction. (D) Percentage of viable cells without cell-membrane damage post the click reactions with the BTTPS-Cu(I) catalyst ([Cu]=20-75 μM) in a one-minute reaction.
# In the ligand design, sulfation of BTTP is used to generate a negatively charged ligand, BTTPS (3-(4-((bis((1-tert-butyl-1H-1,2,3-triazol-4-yl)methyl)amino)methyl)-1H-1,2,3-triazol-1-yl)propyl hydrogen sulfate), (FIG. 14) to minimize the cellular internalization of the coordinated copper. To evaluate if sulfation confers the ligand the desired property, BTTPS-Cu(I) and BTTP-Cu(I) were compared in live cell labeling experiments. Jurkat cells were metabolically labeled with Ac4ManNAl. The treated cells were reacted with biotin-azide (50 μM) in the presence of BTTPS-Cu(I) or BTTP-Cu(I) for 5-15 min at room temperature (catalyst formulation: [ligand]:[CuSO4]=6:1, [CuSO4]=75 μM). After the reaction was quenched with BCS, the biotinylated cells were incubated with Alexa Fluor 488-streptavidin. The cells were then stained with 7-aminoactinomycin D (7-AAD), a fluorescent molecule with strong affinity for double-stranded DNA, and analyzed by flow cytometry. […] Therefore, healthy and damaged cells can be easily distinguished. […] Greater than 60% cells were still undamaged after treatment with BTTPS-Cu(I) (7-AAD negative), whereas only 26% cells treated with BTTP-Cu(I) reminded normal (FIG. 12b). Furthermore, the labeling temperature also plays a significant role in modulating the Cu-associated toxicity. When both Jurkat cells and the labeling reagents were pre-cooled to 4° C. before triggering the CuAAC, greater than 85% cells remained viable after a 15 min BTTPS-Cu(I)-mediated reaction with high labeling efficiency achieved (mean fluorescence intensity 2200, for reactions performed at 4° C.-room temperature vs 3679, for reactions performed at room temperature).
# [1] = cited from earlier work
# zebrafish embryos = conditions: 1 mM CuSO4, 1.5 mM sodium ascorbate, 0.1 mM TBTA ligand; cited from earlier work
# [2] = Fluorogenic kinetic assay of CuAAC of 3-azido-7-hydroxy-coumarin and propargyl alcohol; conditions: TBTA-Cu(I)-catalyzed reaction, same fluorogenic assay
# Procedure: FIG. 1A-1C. Copper(I)-catalyzed azide-alkyne cycloaddition (CuAAC) is accelerated by Cu(I)-stabilizing ligands. (A) CuAAC of azides and terminal alkynes to form 1,4-disubstituted 1,2,3-triazoles. (B) Structures of CuAAC-accelerating ligands. (C) Conversion-time profiles of CuAAC in the presence/absence of accelerating ligands. Reaction conditions: propargyl alcohol (50 μM), 3-azido-7-hydroxy-coumarin (100 μM), CuSO4 (75 μM), 0.1 M potassium phosphate buffer (pH 7.0)/DMSO 95:5, sodium ascorbate ([…]), rt. Error bars represent the standard deviation of three replicate experiments.
# Protocol for Kinetic Measurement of CuAAC of 3-azido-7-hydroxy-coumarin and Propargyl Alcohol […]
# Procedure for 200 μL reactions: In a 96-well fluorescence plate, add the reagents in the following order: (1) 40 μL of 500 mM phosphate buffer pH 7.0; (2) 1.0 μL 10 mM propargyl alcohol; (3) 10 μL of DMSO; (4) 6 μL of premixed CuSO4 and ligand ([Cu]=2.5 mM); (5) 1.0 μL 20 mM coumarin-N3; (6) 20 μL of 25 mM sodium ascorbate; (7) Read fluorescence (λex=404 nm, λem=477 nm, RFU) on the Synergy plate reader.
compound,measurement,setting,value
"CC(C)(C)n1cc(CN(Cc2cn(CC(=O)O)nn2)Cc2cn(C(C)(C)C)nn2)nn1 [BTTAA, 2-(4-((bis((1-tert-butyl-1H-1,2,3-triazol-4-yl)methyl)amino)methyl)-1H-1,2,3-triazol-1-yl)acetic acid]","signal relative to THPTA-Cu(I) (Western blot, ImageJ)","PD1-Fc; biotin-alkyne 100 μM, ligand 500 μM, CuSO4 250 μM, sodium ascorbate 2.5 mM",2.1 fold
"CC(C)(C)n1cc(CN(Cc2cn(CCCOS(=O)(=O)O)nn2)Cc2cn(C(C)(C)C)nn2)nn1 [BTTPS, 3-(4-((bis((1-tert-butyl-1H-1,2,3-triazol-4-yl)methyl)amino)methyl)-1H-1,2,3-triazol-1-yl)propyl hydrogen sulfate]",mean fluorescence intensity,Jurkat cells; reactions performed at 4° C.-room temperature,2200
same,mean fluorescence intensity,Jurkat cells; reactions performed at room temperature,3679
same,cells undamaged (7-AAD negative),"Jurkat cells; 15 min reaction at room temperature, [ligand]:[CuSO4]=6:1, [CuSO4]=75 μM",Greater than 60%
same,cells remaining viable,"Jurkat cells; cells and reagents pre-cooled to 4° C., 15 min reaction",greater than 85%
"c1ccc(Cn2cc(CN(Cc3cn(Cc4ccccc4)nn3)Cc3cn(Cc4ccccc4)nn3)nn2)cc1 [TBTA, tris[(1-benzyl-1H-1,2,3-triazol-4-yl)methyl]amine]",Western blot labeling signal,PD1-Fc,no detectable signal
same,water solubility,[1],very poor water solubility
same,time by which all embryos were dead,zebrafish embryos,≤ 15 min
same,cycloaddition product yield at leveling off,[2],< 20%
biarylazacyclooctynone [BARAC],Western blot labeling signal,PD1-Fc,no detectable signal
"tris[(1-hydroxypropyl-1H-1,2,3-triazol-4-yl)methyl]amine [THPTA]",Western blot labeling signal,PD1-Fc,significantly weaker labeling
